The results in this text go back to ChEMBL document CHEMBL4321881 (J Med Chem, 2020).

Values after ≈ are worked out from the molar mass of the structure shown.

Data set [1] is described as follows: Solubility of the compound. The class given is physicochemical.
The nature of data set [2]: Metabolic stability in human liver microsomes assessed as parent compound remaining after 30 mins. Type of data set: ADME, Microsome. The note with it: read-out: Stability.
A short description of data set [3]: Metabolic stability in mouse liver microsomes assessed as parent compound remaining after 30 mins. The class given is ADME, Microsome. The note with it: read-out: Stability.
For data set [4], the target named is T1, Isocitrate dehydrogenase [NADP] cytoplasmic (Homo sapiens, UniProt O75874, R132C). As to the kind of experiment: Inhibition of recombinant human Myc-DDK-tagged IDH1 R132C mutant using alpha-ketoglutarate as substrate preincubated for 15 mins followed by substrate and NADPH addition and measured after 45 mins by diaphorase/resazurin dye based assay.
Target sequence in this assay (O75874 2-414 R132C limits assumed): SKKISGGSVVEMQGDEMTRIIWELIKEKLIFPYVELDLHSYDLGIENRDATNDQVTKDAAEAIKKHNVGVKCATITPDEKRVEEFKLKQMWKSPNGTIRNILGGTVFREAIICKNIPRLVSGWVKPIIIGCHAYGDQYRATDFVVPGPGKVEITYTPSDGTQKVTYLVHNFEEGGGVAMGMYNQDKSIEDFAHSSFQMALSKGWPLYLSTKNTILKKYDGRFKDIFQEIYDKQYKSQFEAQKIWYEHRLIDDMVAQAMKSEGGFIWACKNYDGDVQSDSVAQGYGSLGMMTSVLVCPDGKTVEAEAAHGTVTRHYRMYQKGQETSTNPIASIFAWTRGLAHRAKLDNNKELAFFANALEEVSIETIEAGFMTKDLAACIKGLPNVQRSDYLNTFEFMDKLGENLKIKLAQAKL
Data set [5] addresses T2, Isocitrate dehydrogenase [NADP] cytoplasmic (Homo sapiens, UniProt O75874, R132H). Briefly: Inhibition of recombinant human Myc-DDK-tagged IDH1 R132H mutant using alpha-ketoglutarate as substrate preincubated for 15 mins followed by substrate and NADPH addition and measured after 45 mins by diaphorase/resazurin dye based assay. (In general: Alamar Blue is a resazurin reagent that responds to reducing activity.)
Target sequence in this assay (O75874 2-414 R132H limits assumed): as the sequence (O75874 2-414 R132C limits assumed) above, with C131H counted along it

For data set [6], the target named is T2, Isocitrate dehydrogenase [NADP] cytoplasmic. As to the kind of experiment: Inhibition of IDH1 R132H mutant in human HCT116 cells assessed as reduction in 2-HG levels after 24 hrs by RapidFire high-throughput mass spectrometry assay. The class given is cell-based.
Target sequence in this assay (O75874 whole entry R132H): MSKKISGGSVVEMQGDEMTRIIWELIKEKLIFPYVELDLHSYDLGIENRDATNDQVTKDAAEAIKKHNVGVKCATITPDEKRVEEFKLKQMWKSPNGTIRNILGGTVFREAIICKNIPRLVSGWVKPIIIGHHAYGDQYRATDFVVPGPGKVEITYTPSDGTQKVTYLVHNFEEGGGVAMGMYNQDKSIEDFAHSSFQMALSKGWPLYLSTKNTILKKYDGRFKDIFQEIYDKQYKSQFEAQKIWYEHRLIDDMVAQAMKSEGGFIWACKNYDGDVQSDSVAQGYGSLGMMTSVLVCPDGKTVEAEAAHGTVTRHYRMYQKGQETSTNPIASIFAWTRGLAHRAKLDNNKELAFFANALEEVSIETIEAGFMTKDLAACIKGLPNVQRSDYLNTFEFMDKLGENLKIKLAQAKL
The target in data set [7] is T1, Isocitrate dehydrogenase [NADP] cytoplasmic. Briefly: Inhibition of IDH1 R132C mutant in human HCT116 cells assessed as reduction in 2-HG levels after 24 hrs by RapidFire high-throughput mass spectrometry assay. The class given is cell-based.
Target sequence in this assay (O75874 whole entry R132C): as the sequence (O75874 whole entry R132H) above, with H132C counted along it
Data set [8] relates to Mus musculus. Briefly: In vivo inhibition of IDH1 R132H mutant in human HCT116 cells xenografted in BALB/c nude mouse assessed as reduction in tumor 2-HG level at 50 mg/kg, po administered at 12 hrs intervals for 3 times measured up to 24 hrs post-last dose by LC-MS analysis relative to control. Type of data set: functional. The note with it: HCT-116, po. In general terms: Xenograft models place foreign cells or tissue in a host animal.

Data set [9] relates to Mus musculus. As to the kind of experiment: In vivo inhibition of IDH1 R132C mutant in human HCT116 cells xenografted in BALB/c nude mouse assessed as reduction in tumor 2-HG level at 50 mg/kg, po administered at 12 hrs intervals for 3 times measured at 12 to 24 hrs post-last dose by LC-MS analysis relative to control. The class given is functional. The note with it: HCT-116, po.

Data set [10] relates to Mus musculus. Briefly: In vivo inhibition of IDH1 R132H mutant in human HCT116 cells xenografted in po dosed BALB/c nude mouse assessed as reduction in tumor 2-HG level administered at 12 hrs intervals for 3 times measured up to 24 hrs post-last dose by LC-MS analysis. The class given is functional.
For data set [11], the system named is Mus musculus. As to the kind of experiment: In vivo inhibition of IDH1 R132C mutant in human HCT116 cells xenografted in po dosed BALB/c nude mouse assessed as reduction in tumor 2-HG level administered at 12 hrs intervals for 3 times measured up to 24 hrs post-last dose by LC-MS analysis. The class given is functional.
Data set [12] can be described thus: Free Cmax in CD1 mouse at 100 mg/kg, po administered as single dose. Type of data set: ADME, organism-based. The note with it: in vivo.
Data set [13] is described as follows: Free Cmax in CD1 mouse at 100 mg/kg, po administered as single dose measured after 7 hrs. The class given is ADME, organism-based. The note with it: in vivo.
Data set [14] is described as follows: Time at which fCmax required to show >90% suppression of 2-HG level in human HCT116 cells xenografted BALB/c nude mouse in CD1 mouse at 100 mg/kg, po. The note with it: in vivo. Type of data set: ADME, organism-based.
A short description of data set [15]: Permeability of the compound by PAMPA. Type of data set: ADME. The note with it: read-out: permeability. Background: In PAMPA a lipid-coated filter parts donor from acceptor wells.
A short description of data set [16]: Apparent permeability across basolateral to apical side in human Caco2 cells. The class given is ADME, cell-based. The settings on record: caco-2.
Data set [17] can be described thus: Apparent permeability across apical to basolateral side in human Caco2 cells. The class given is ADME, cell-based. The settings on record: caco-2.
The nature of data set [18]: Kinetic solubility of the compound at pH 7.4. Type of data set: physicochemical. The settings on record: buffer, read-out: Kinetic_solubility.

In data set [1], `COc1cc2[nH]c(=O)c([C@H](C)Nc3ccc(C#N)n(C)c3=O)cc2cc1Cl` had a solubility of 11.6 µM (≈ 4.46 µg/mL). For the same compound, in data set [2], the remaining at 0.5 h stood at 83%.
In data set [1], `Cn1cccc(NCc2cc3cc(Cl)ccc3[nH]c2=O)c1=O` registered a solubility of 54 µM (≈ 17.1 µg/mL). Moreover, the remaining at 0.5 h in data set [2] came to 90%; in data set [3] it was 26%.
`C[C@H](Nc1ccc(C#N)n(C)c1=O)c1cc2cc(Cl)c(F)cc2[nH]c1=O` returned a solubility in data set [1] of 18 µM (≈ 6.71 µg/mL). Moreover, the IC50 in [4] amounted to 159 nM; in [5] it was 25 nM; in data set [6], 22 nM; in [7], 104 nM. Besides, in [2], the remaining at 0.5 h turned out to be 100%.
Turning to `N#Cc1ccc(NCc2cc3cc(Cl)ccc3[nH]c2=O)c(=O)[nH]1`, the solubility in [1] was found to be 2.21 µM (≈ 0.722 µg/mL). Besides, in data set [5], the half-inhibitory concentration (IC50) came to 64.7 nM. Also, the remaining at 0.5 h in [2] turned out to be 100%; in data set [3], 86%.
Take `O=c1[nH]c2ccc(Cl)cc2cc1CNc1cccn(C2CC2)c1=O`: in data set [1], the solubility worked out at 56 µM (≈ 19.1 µg/mL). For the same compound, the results for the remaining at 0.5 h in [2] and in data set [3] were 78% and 7%, respectively.
`C[C@H](Nc1ccc(C#N)n(C)c1=O)c1cc2cc(Cl)c(OCC3CC3)cc2[nH]c1=O` showed a solubility in [1] of 0.53 µM (≈ 0.225 µg/mL). Besides, the remaining at 0.5 h in data set [2] came out at 82%.
In [1], `Cn1c(C(F)(F)F)ccc(NCc2cc3cc(Cl)ccc3[nH]c2=O)c1=O` returned a solubility of less than 0.1 µM. In addition, the half-maximal inhibitory concentration (IC50) in data set [5] is 160 nM. For the same compound, the remaining at 0.5 h in data set [2] was determined as 85%; in data set [3], 67%.
In [1], `C[C@H](Nc1ccc(C#N)n(C)c1=O)c1cc2cc(Cl)c(OCc3ccccn3)cc2[nH]c1=O` returned a solubility of 2.5 µM (≈ 1.15 µg/mL). Further, the remaining at 0.5 h in data set [2] came to 66%.
In the same order, the values of `C[C@H](Nc1ccc(C#N)n(C)c1=O)c1cc2cc(Cl)c(O[C@H](C)c3ccccn3)cc2[nH]c1=O` are 1.6 µM (≈ 0.761 µg/mL) and 70%.
As for `COc1cccc(NCc2cc3cc(Cl)ccc3[nH]c2=O)c1`, the concentration in solution in data set [1] (solubility) was 0.28 µM (≈ 0.0881 µg/mL). Moreover, the IC50 in data set [5] was greater than 25000 nM. The remaining at 0.5 h in [2] stood at 78%; in [3], 19%.
In the case of `CN1CCCC(NCc2cc3cc(Cl)ccc3[nH]c2=O)C1=O` (stereo unspecified), the concentration in solution in data set [1] (solubility) came to 94 µM (≈ 30.1 µg/mL). The concentration for half-maximal inhibition (IC50) in [5] came to 25000 nM. Also, the remaining at 0.5 h in [2] is 99%; in [3], 83%.
In data set [1], `Cn1c(C#N)ccc(NCc2cc3cc(Cl)ccc3[nH]c2=O)c1=O` displayed a solubility of 0.295 µM (≈ 0.101 µg/mL). Moreover, the values for the remaining at 0.5 h in [2] and in [3] were 99% and 73%, respectively.
The corresponding values for `CCn1cccc(NCc2cc3cc(Cl)ccc3[nH]c2=O)c1=O` are 10 µM (≈ 3.3 µg/mL), 72% and 7%.
As to `C[C@H](Nc1ccc(C#N)n(C)c1=O)c1cc2cc(Cl)ccc2[nH]c1=O` [OLUTASIDENIB], the solubility in [1] was determined as 34.5 µM (≈ 12.2 µg/mL). Moreover, the remaining at 0.5 h in data set [2] worked out at 100%; in data set [3], 92%. The inhibition in vivo at 50 mg/kg in [8] and in [9] was greater than 90% throughout. For the same compound, the fIC50 turned out to be 26 nM in [10] and 36 nM in data set [11]. Also, the fCmax is 200 nM in [12] and 130 nM in [13]. Besides, in data set [14], the Time amounted to 7 h. Moreover, the Papp came to 19.9 ×10⁻⁶ cm/s in data set [15], 9.01 ×10⁻⁶ cm/s in data set [16] and 12.12 ×10⁻⁶ cm/s in data set [17]. Besides, the solubility kinetic in [18] is 35.4 µM (≈ 12.6 µg/mL).

As usually defined, the solubility is the concentration that dissolves in the medium under given conditions. The IC50 is the concentration needed to halve the response being measured. By inhibition in vivo is commonly meant the change of the read-out against control, counted positive when it falls.
